Test system: 633275-114-R-J1-PDC complex spheroids, viability
Experiment: Anticancer human tumor 633275-114-R-J1-PDC patient-derived endometrial adenocarcinoma cell line growth inhibition [GQUAD]
Details: for IC50: curve of first compound; for viability, T/C: stronger effect = lower value
In short: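 Tumor cells were grown as complex spheroids with HUVEC endothelial cells and mesenchymal stem cells as stroma. G-quadruplex stabilizers were combined with targeted agents over half-log dilutions from near the clinical Cmax, or from 10 microM.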

[1] = second compound 0.0316 µM, first compound 0.0316 µM
[2] = second compound 0.0316 µM, first compound 0.316 µM
[3] = second compound 0.1 µM, first compound 0.0316 µM
[4] = second compound 0.1 µM, first compound 0.316 µM
[5] = second compound 0.316 µM, first compound 0.0316 µM
[6] = second compound 0.316 µM, first compound 0.316 µM
[7] = second compound 1 µM, first compound 0.0316 µM
[8] = second compound 1 µM, first compound 0.316 µM
[9] = second compound 3.16 µM, first compound 0.0316 µM
[10] = second compound 3.16 µM, first compound 0.316 µM
[11] = second compound 10 µM, first compound 0.0316 µM
[12] = second compound 10 µM, first compound 0.316 µM
[13] = second compound 0.0316 µM, first compound 0.000999 µM
[14] = second compound 0.0316 µM, first compound 0.00316 µM
[15] = second compound 0.0316 µM, first compound 0.00999 µM
[16] = second compound 0.0316 µM, first compound 0.0999 µM
[17] = second compound 0.1 µM, first compound 0.000999 µM
[18] = second compound 0.1 µM, first compound 0.00316 µM
[19] = second compound 0.1 µM, first compound 0.00999 µM
[20] = second compound 0.1 µM, first compound 0.0999 µM
[21] = second compound 0.316 µM, first compound 0.000999 µM
[22] = second compound 0.316 µM, first compound 0.00316 µM
[23] = second compound 0.316 µM, first compound 0.00999 µM
[24] = second compound 0.316 µM, first compound 0.0999 µM
[25] = second compound 1 µM, first compound 0.000999 µM
[26] = second compound 1 µM, first compound 0.00316 µM
[27] = second compound 1 µM, first compound 0.00999 µM
[28] = second compound 1 µM, first compound 0.0999 µM
[29] = second compound 3.16 µM, first compound 0.000999 µM
[30] = second compound 3.16 µM, first compound 0.00316 µM
[31] = second compound 3.16 µM, first compound 0.00999 µM
[32] = second compound 3.16 µM, first compound 0.0999 µM
[33] = second compound 10 µM, first compound 0.000999 µM
[34] = second compound 10 µM, first compound 0.00316 µM
[35] = second compound 10 µM, first compound 0.00999 µM
[36] = second compound 10 µM, first compound 0.0999 µM
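Further: spheroids exposed to the agents for seven days.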
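Wherever viability, T/C is given: percent of DMSO vehicle control viability which is 100%.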

For `C=CC(=O)N1CCN(c2nc(=O)n(-c3c(C)ccnc3C(C)C)c3nc(-c4c(O)cccc4F)c(F)cc23)C(C)C1` (stereo unspecified) + Cc1[nH]c2ccc(F)cc2c1-c1nc2c3cccnc3c3ncccc3c2[nH]1, the IC50 (second compound 0.0316 µM) was > 10 µM, the IC50 (second compound 0.1 µM) was > 10 µM and the IC50 (second compound 0.316 µM) was > 10 µM. The IC50 (second compound 1 µM) was > 10 µM, the IC50 (second compound 3.16 µM) was > 10 µM and the IC50 (second compound 10 µM) was > 10 µM. It also gave a viability, T/C [1] of 95.3%, a viability, T/C (second compound 0.0316 µM, first compound 0.1 µM) of 100% and a viability, T/C [2] of 93.9%. It also gave a viability, T/C (second compound 0.0316 µM, first compound 1 µM) of 104%, a viability, T/C (second compound 0.0316 µM, first compound 3.16 µM) of 104% and a viability, T/C (second compound 0.0316 µM, first compound 10 µM) of 77.9%. For the same compound, the viability, T/C [3] was 106%, the viability, T/C (second compound 0.1 µM, first compound 0.1 µM) was 105% and the viability, T/C [4] was 102%. The viability, T/C (second compound 0.1 µM, first compound 1 µM) was 100%, the viability, T/C (second compound 0.1 µM, first compound 3.16 µM) was 105% and the viability, T/C (second compound 0.1 µM, first compound 10 µM) was 88.9%. For the same compound, the viability, T/C [5] was 97.3%, the viability, T/C (second compound 0.316 µM, first compound 0.1 µM) was 98.1% and the viability, T/C [6] was 103%. It also gave a viability, T/C (second compound 0.316 µM, first compound 1 µM) of 97.6%, a viability, T/C (second compound 0.316 µM, first compound 3.16 µM) of 105% and a viability, T/C (second compound 0.316 µM, first compound 10 µM) of 83.3%. For the same compound, the viability, T/C [7] was 91.5%, the viability, T/C (second compound 1 µM, first compound 0.1 µM) was 92.4% and the viability, T/C [8] was 94.7%. For the same compound, the viability, T/C (second compound 1 µM, first compound 1 µM) was 98.1%, the viability, T/C (second compound 1 µM, first compound 3.16 µM) was 90.1% and the viability, T/C (second compound 1 µM, first compound 10 µM) was 77.9%. It also gave a viability, T/C [9] of 72.5%, a viability, T/C (second compound 3.16 µM, first compound 0.1 µM) of 74.9% and a viability, T/C [10] of 75.8%. For the same compound, the viability, T/C (second compound 3.16 µM, first compound 1 µM) was 76.3%, the viability, T/C (second compound 3.16 µM, first compound 3.16 µM) was 74.2% and the viability, T/C (second compound 3.16 µM, first compound 10 µM) was 62.6%. The viability, T/C [11] was 67%, the viability, T/C (second compound 10 µM, first compound 0.1 µM) was 71.8% and the viability, T/C [12] was 68.2%. For the same compound, the viability, T/C (second compound 10 µM, first compound 1 µM) was 78.7%, the viability, T/C (second compound 10 µM, first compound 3.16 µM) was 71.6% and the viability, T/C (second compound 10 µM, first compound 10 µM) was 59%.
Work on `CC[C@@]1(O)C(=O)OCc2c1cc1n(c2=O)Cc2cc3c(CN(C)C)c(O)ccc3nc2-1` + Cc1[nH]c2ccc(F)cc2c1-c1nc2c3cccnc3c3ncccc3c2[nH]1 yielded an IC50 (second compound 0.0316 µM) of 0.0799 µM, an IC50 (second compound 0.1 µM) of 0.0839 µM and an IC50 (second compound 0.316 µM) of 0.0744 µM. For the same compound, the IC50 (second compound 1 µM) was 0.0731 µM, the IC50 (second compound 3.16 µM) was 0.0463 µM and the IC50 (second compound 10 µM) was 0.0434 µM. The viability, T/C [13] was 98.6%, the viability, T/C [14] was 91.9% and the viability, T/C [15] was 86.8%. It also gave a viability, T/C [1] of 69.6%, a viability, T/C [16] of 43.9% and a viability, T/C [2] of 36.9%. The viability, T/C [17] was 93.8%, the viability, T/C [18] was 93.6% and the viability, T/C [19] was 87.7%. It also gave a viability, T/C [3] of 73.4%, a viability, T/C [20] of 45.3% and a viability, T/C [4] of 35.8%. The viability, T/C [21] was 94%, the viability, T/C [22] was 99.1% and the viability, T/C [23] was 88.2%. The viability, T/C [5] was 71.2%, the viability, T/C [24] was 41.8% and the viability, T/C [6] was 36.5%. It also gave a viability, T/C [25] of 90.4%, a viability, T/C [26] of 91.8% and a viability, T/C [27] of 79.3%. The viability, T/C [7] was 68%, the viability, T/C [28] was 41.9% and the viability, T/C [8] was 36.3%. The viability, T/C [29] was 71.7%, the viability, T/C [30] was 70.4% and the viability, T/C [31] was 69.1%. For the same compound, the viability, T/C [9] was 56.5%, the viability, T/C [32] was 37.1% and the viability, T/C [10] was 33.2%. It also gave a viability, T/C [33] of 66.5%, a viability, T/C [34] of 74.4% and a viability, T/C [35] of 71%. For the same compound, the viability, T/C [11] was 54.6%, the viability, T/C [36] was 36.5% and the viability, T/C [12] was 29.7%.
With `CCc1c2c(nc3ccc(O)cc13)-c1cc3c(c(=O)n1C2)COC(=O)[C@]3(O)CC` + Cc1[nH]c2ccc(F)cc2c1-c1nc2c3cccnc3c3ncccc3c2[nH]1 the IC50 (second compound 0.0316 µM) was 0.00244 µM, the IC50 (second compound 0.1 µM) was 0.00309 µM and the IC50 (second compound 0.316 µM) was 0.0027 µM. The IC50 (second compound 1 µM) was 0.00227 µM, the IC50 (second compound 3.16 µM) was 0.00162 µM and the IC50 (second compound 10 µM) was 0.00141 µM. It also gave a viability, T/C [13] of 69.7%, a viability, T/C [14] of 42.2% and a viability, T/C [15] of 36.2%. The viability, T/C [1] was 31.7%, the viability, T/C [16] was 30% and the viability, T/C [2] was 24.7%. The viability, T/C [17] was 71.1%, the viability, T/C [18] was 47.1% and the viability, T/C [19] was 37.2%. The viability, T/C [3] was 34.3%, the viability, T/C [20] was 27.3% and the viability, T/C [4] was 22.3%. The viability, T/C [21] was 68.8%, the viability, T/C [22] was 44.2% and the viability, T/C [23] was 37.5%. The viability, T/C [5] was 31.4%, the viability, T/C [24] was 28% and the viability, T/C [6] was 22.4%. The viability, T/C [25] was 62.6%, the viability, T/C [26] was 43.5% and the viability, T/C [27] was 35.1%. For the same compound, the viability, T/C [7] was 32.3%, the viability, T/C [28] was 27.5% and the viability, T/C [8] was 23.4%. It also gave a viability, T/C [29] of 57.5%, a viability, T/C [30] of 38.9% and a viability, T/C [31] of 33.2%. The viability, T/C [9] was 30.8%, the viability, T/C [32] was 27.6% and the viability, T/C [10] was 25.8%. For the same compound, the viability, T/C [33] was 55.2%, the viability, T/C [34] was 37.7% and the viability, T/C [35] was 33%. The viability, T/C [11] was 29.5%, the viability, T/C [36] was 24.8% and the viability, T/C [12] was 23.7%.
